Experiment: Aqueous solubility of the salt (stated in words)
Assay type: physicochemical
Conditions: water, compared with the hydrochloride salt

Substance: paroxetine methanesulfonate
- aqueous solubility (in words): highly water soluble
- aqueous solubility (in words) (listed as methanesulfonate salt of paroxetine): significantly more soluble than the hydrochloride salt

Reference: patent US20010023252A1, “Novel compound” (SmithKline Beecham Plc, priority 1998, published 2001)
